In patent publication US5948793A, “3-pyridyloxymethyl heterocyclic ether compounds useful in controlling neurotransmitter release” (Abbott Laboratories, priority 1995, dated 1999):
Structures can show the parent of a compound that is named as a salt. Where two headings read alike, the source gives them in different places.

Tests used:
[1] = biological target: neuronal nicotinic cholinergic channel receptors; assay: [3H]-cytisine displacement binding to neuronal nicotinic cholinergic channel receptors; assay type: rat (crude synaptic membranes from whole rat brain); conditions: read-out: Receptor Binding Ki
Protocol: B. Protocol For Determination of Nicotinic Cholinergic Channel Receptor Binding Potencies of Ligands
Binding of [^3 H]-cytisine ([^3 H]-CYT) to nicotinic receptors was accomplished using crude synaptic membrane preparations from whole rat brain (Pabreza et al., Molecular Pharmaol., 1990, 39:9). Washed membranes were stored at -80° C. prior to use. Frozen aliquots were slowly thawed and resuspended in 20 volumes of buffer (containing: 120 mM NaCl, 5 mM KCl, 2 mM MgCl2, 2 mM CaCl2 and 50 mM Tris-Cl, pH 7.4 @4° C.). After centrifuging at 20,000×g for 15 minutes, the pellets were resuspended in 30 volumes of buffer. Homogenate (containing […]) was added to triplicate tubes containing concentrations of test compound and [^3 H]-CYT (1.25 nM) in a final volume of 500 μL. Samples were incubated for 60 minutes at 4° C., then rapidly filtered through Whatman GF/B filters presoaked in 0.5% polyethylimine using 3×4 mL of ice-cold buffer. The filters are counted in 4 mL of Ecolume® (ICN). […] Alternately, data were expressed as a percentage of the total specific binding.

[2] = test system: nAChR evoked release of [3H]-dopamine, rat striatal slices; assay: Striatal dopamine release assay (nAChR evoked release of [3H]-dopamine from superfused rat striatal slices); assay type: cell-based, rat (male Sprague-Dawley); conditions: Table 1, relative to 100 nM (-)-nicotine
Protocol: The protocol for this procedure follows below.
A. Protocol for Determination of Striatal Dopamine Release.
nAChR evoked release of [ring-2,5,6-^3 H]-dopamine (24.4 Ci/mmol) was measured in superfused rat striatal slices. Striata were dissected from two male Sprague-Dawley rats per experiment and sliced 0.35×0.25 mm by a McIlwain Tissue Chopper (Brinkman Instrument Co., Westbury, N.Y.). After two washes with Krebs-HEPES buffer (137 mM NaCl, 4.7 mM KCl, 1 mM MgSO4, 2.5 mM CaCl2, 1.25 mM NaH2 PO4, 10 mM glucose, 15 mM HEPES-NaOH, pH 7.4, containing 10 μM pargyline and 10 μM ascorbic acid), slices were preincubated for 10 minutes at 37° C. under 95%/5% O2 /CO2. After replacing the buffer, slices were labeled with 100 nM [^3 H]-dopamine for 25 min in Krebs-HEPES at 37° C. Aliquots of slices were placed in 18 superfusion chambers of a Brandel SP2000 superfusion apparatus (Brandel, Gaithersberg, Md.). Following 47 minutes of washout, slices were exposed to agonist at various concentrations for 4 minutes. Antagonists or inhibitors, when present were introduced 4 minutes prior to and during agonist exposure. Collected fractions were counted in 5 mL of Ecolume. Tissue was recovered from superfusion chambers, solubilized with 1 mL of Solvable™ (DuPont-NEN) and counted in 15 mL of Ecolume. Fractional release of [^3 H]-dopamine was calculated from radioactivity above baseline as a fraction of total radioactivity.

[3] = Table 1, [3H]-cytisine 1.25 nM, 60 min at 4° C.
[4] = example concentration * = 10 μM
[5] = example concentration ** = 1 μM
[6] = example concentration *** = 0.1 μ
[7] = Table 2, [3H]-cytisine 1.25 nM, 60 min at 4° C.

Row | Structure (SMILES) | Ki [1, 7] [nM] | also measured
1 | CN1CCC[C@@H]1COc1cccnc1.Cl [Example 1, 3-((1-methyl-2-(R)-pyrrolidinyl)methoxy)pyridine hydrochloride] | – | Ki [1, 3]: 23 nM; Dopamine Release relative to Nicotine [2, 4]: 0.08
2 | CN1CCC[C@H]1COc1cccnc1.O=C(O)/C=C/C(=O)O [Example 4, 3-((1-methyl-2-(S)-pyrrolidinyl)methoxy)pyridine fumarate] | – | Ki [1]: 0.2 nM; Dopamine Release relative to Nicotine [2, 4]: 1.0
3 | CN1CC[C@H]1COc1cnccn1.Cl.Cl [Example 8, 2-((1-methyl-2-(S)-azetidinyl)methoxy)pyrazine dihydrochloride] | – | Ki [1, 3]: 33 nM; Dopamine Release relative to Nicotine [2, 5]: 0.55
4 | CN1CC[C@H]1COc1cccnc1.Cl.Cl [Example 10, 3-((1-methyl-2-(S)-azetidinyl)methoxy)pyridine dihydrochloride] | – | Ki [1]: 0.25 nM; Dopamine Release relative to Nicotine [2, 4]: 1.0
5 | O=C(O)/C=C/C(=O)O.c1cncc(OC[C@@H]2CCCN2)c1 [Example 14, 3-(2-(S)-pyrrolidinylmethoxy)pyridine fumarate] | – | Ki [1]: 0.14 nM; Dopamine Release relative to Nicotine [2, 5]: 1.0
6 | CN1CCC[C@H]1COc1cncc(Cl)c1.Cl.Cl [Example 16, 5-chloro-3-((1-methyl-2-(S)-pyrrolidinyl)methoxy)pyridine dihydrochloride] | – | Dopamine Release relative to Nicotine [2, 5]: 1.0
7 | Cc1ccc(OC[C@@H]2CCCN2)cn1.Cl.Cl [Example 18, 6-methyl-3-(2-(S)-pyrrolidinylmethoxy)pyridine dihydrochloride] | – | Ki [1]: 0.28 nM; Dopamine Release relative to Nicotine [2, 6]: 1.0
8 | Cc1ccc(OC[C@@H]2CCCN2C)cn1.Cl.Cl [Example 19, 6-methyl-3-((1-methyl-2-(S)-pyrrolidinyl)methoxy)pyridine dihydrochloride] | – | Ki [1]: 1.47 nM; Dopamine Release relative to Nicotine [2, 6]: 0.78
9 | CN1CCC[C@H]1COc1cnc2ccccc2c1.Cl [Example 31, 3-(1-methyl-2-(S)-pyrrolidinylmethoxy)quinoline hydrochloride] | – | Ki [1, 3]: 0.7 nM; Dopamine Release relative to Nicotine [2, 4]: 0.15
10 | FC(F)(F)c1cncc(OC[C@H]2CCCN2)c1 [Example 69, 3-(2-(R)-pyrrolidinylmethoxy)-5-trifluoromethylpyridine dihydrochloride] | 2.1 | –
11 | FC(F)(F)c1cncc(OC[C@@H]2CCN2)c1 [Example 70, 3-(2-(S)-azetidinylmethoxy)-5-trifluoromethylpyridine dihydrochloride] | 0.6 | –
12 | CCCCc1cncc(OC[C@@H]2CCCN2C)c1 [Example 71, 5-n-butyl-3-((1-methyl-2-(S)-pyrrolidinyl)methoxy)pyridine dihydrochloride] | 0.1 | –
13 | O[C@H]1CN[C@H](COc2cccnc2)C1 [Example 72, 3-((trans-4-hydroxy-2-(S)-pyrrolidinyl)methoxy)pyridine dihydrochloride] | 110 | –
14 | Cc1cncc(OC[C@@H]2CCCN2C)c1 [Example 73, 5-methyl-3-(1-methyl-2-(S)-pyrrolidinylmethoxy)pyridine dihydrochloride] | 0.48 | –
15 | CO[C@H]1CN[C@H](COc2cccnc2)C1 [Example 74, 3-((trans-4-methoxy-2-(S)-pyrrolidinyl)methoxy)pyridine dihydrochloride] | 59 | –
16 | CCc1cncc(OC[C@@H]2CCCN2C)c1 [Example 75, 5-ethyl-3-(1-methyl-2-(S)-pyrrolidinylmethoxy)pyridine dihydrochloride] | 0.32 | –
17 | c1ccc2ncc(OC[C@H]3CCCN3)cc2c1 [Example 76, 3-(2-(R)-pyrrolidinylmethoxy)quinoline dihydrochloride] | 12.8 | –
18 | CCCc1cncc(OC[C@@H]2CCCN2C)c1 [Example 77, 5-n-propyl-3-((1-methyl-2-(S)-pyrrolidinyl)methoxy)pyridine dihydrochloride] | 0.1 | –
19 | CN1C[C@@H](F)C[C@H]1COc1cccnc1 [Example 78, 3-((cis-4-fluoro-1-methyl-2-(S)-pyrrolidinyl)methoxy)pyridine dihydrochloride] | 5.77 | –
20 | CN1CCC[C@H]1COc1cccnn1 [Example 79, 3-((1-methyl-2-(S)-pyrroidinyl)methoxy)pyridazine dihydrochloride] | 42.8 | –

Row | Structure (SMILES) | Ki [1, 7] [nM] | also measured
21 | CN1CC[C@H]1COc1cncc(Cl)c1 [Example 80, 5-chloro-3-((1-methyl-2-(S)-azetidinyl)methoxy)pyridine dihydrochloride] | 1.9 | –
22 | Cc1ncccc1OC[C@H]1CCN1 [Example 81, 2-methyl-3-(2-(R)-azetidinylmethoxy)pyridine dihydrochloride] | – | Ki ([1]; Table 2, [3H]-cytisine 1.25 nM, 60 min at 4° C., dihydrochloride): 9.3 nM
23 | C=CCN1CCC[C@H]1COc1cccnc1 [Example 82, 3-((1-allyl-2-(S)-pyrrolidinyl)methoxy)pyridine dihydrochloride] | 72.4 | –
24 | CN1C[C@H](CO)C[C@H]1COc1cccnc1 [Example 83, 3-((trans-4-hydroxymethyl-1-methyl-2-(S)-pyrrolidinyl)methoxy)pyridine dihydrochloride] | 73.1 | –
25 | CN1CCC[C@H]1COc1cncnc1 [Example 84, 5-(1-methyl-2-(S)-pyrrolidinylmethoxy)pyrimidine dihydrochloride] | 2.41 | –
26 | Clc1ccc(OC[C@@H]2CCN2)nn1 [Example 85, 3-(2-(S)-azetidinylmethoxy)-6-chloropyridazine hydrochloride] | 16 | –
27 | CN1CC[C@H]1COc1ccc(Cl)nc1 [Example 86, 3-((1-methyl-2-(S)-azetidinyl)methoxy)-6-chloropyridine hydrochloride] | 1.43 | –
28 | CN1C[C@H](OS(C)(=O)=O)C[C@H]1COc1cccnc1 [Example 87, 3-((trans-4-methanesulfonyloxy-1-methyl-2(S)-pyrrolidinyl)methoxy)pyridine dihydrochloride] | 0.11 | –
29 | CN1CCC[C@H]1COc1ccc(CO)nc1 [Example 88, 6-hydroxymethyl-3-((1-methyl-2-(S)-pyrrolidinyl)methoxy)pyridine dihydrochloride] | 10.4 | –
30 | C[C@@H]1CC[C@@H](COc2cccnc2)N1C [Example 89, 3-((trans-1,5-dimethyl-2-(S)-pyrrolidinyl)methoxy)pyridine hydrochloride] | 91.2 | –
31 | CN1C[C@@H](C#N)C[C@H]1COc1cccnc1 [Example 90, 3-((cis-4-cyano-1-methyl-2(S)-pyrrolidinyl)methoxy)pyridine dihydrochloride] | 18.4 | –
32 | CN1C[C@@H](CF)C[C@H]1COc1cccnc1 [Example 92, 3-((cis-4-fluoromethyl-1-methyl-2-(S)-pyrrolidinyl)methoxy)pyridine dihydrochloride] | 141 | –
33 | CN1CCC[C@H]1COc1cncc(N)c1 [Example 94, 5-Amino-3-(1-methyl-2(S)-pyrrolidinylmethoxy)pyridine hydrochloride] | 0.5 | –
34 | c1cncc(OCC[C@@H]2CCCN2)c1 [Example 102, 3-(2-(2-(S)-pyrrolidinyl)ethoxy)pyridine dihydrochloride] | 34.9 | –
35 | CN1CCC[C@H]1CCOc1cccnc1 [Example 103, 3-(2-(1-methyl-2-(S)-pyrrolidinyl)ethoxy)pyridine dihydrochloride] | 18.4 | –
36 | CN1CCC[C@H]1CCOc1ccc(Cl)nc1 [Example 105, 3-(2-(1-methyl-2-(S)-pyrrolidinyl)ethoxy-6-chloropyridinedihydrochloride] | 33.1 | –
37 | CN1CCC[C@H]1COc1cncc([N+](=O)[O-])c1 [Example 108, 5-Nitro-3-(1-methyl-2(S)-pyrrolidinylmethoxy)pyridine hydrochloride] | 4.9 | –
38 | Clc1cc(OC[C@@H]2CCN2)cnc1Cl [Example 109, 5,6-Dichloro-3-(2-(S)-azetidinylmethoxy)pyridine hydrochloride] | 0.024 | –
39 | CN1CC[C@H]1COc1cnc(Cl)c(Cl)c1 [Example 110, 5,6-Dichloro-3-(1-methyl-2-(S)-azetidinylmethoxy)pyridine hydrochloride] | 0.75 | –
